Columns and labels:
Calu-3 monolayers [1] = system: Calu-3 monolayers; design: method as in PMID 29970849; conditions: Calu-3 cells, non-cytotoxic concentration, reversible; cited from earlier work
[2] = CMC by pyrene fluorescence spectroscopy; type: physicochemical; conditions: pyrene I/III peak ratio, aqueous solution, 25 °C
Description: Pyrene is a common fluorescence probe, widely employed to investigate the aggregation state of surfactant in aqueous solution, as its emission properties are strongly influenced by the polarity of the microenvironment. Specifically, a decrease in the ratio between I and III peaks is observed when the hydrophobicity increases in the surroundings of pyrene as a result of the aggregation of surfactants into micelles or supramolecular aggregates. […] As is common for surfactants, the concentration at which aggregation in aqueous solution occurs is strongly dependent on the hydrophilicity/hydrophobicity balance between the surfactant head and tail. Specifically, changes in the hydrophobicity of the surfactant tail exert a marked effect on the self-assembling properties for a surfactant bearing the same polar head. On the contrary, the variation in the sugar head has a minor effect.
The pyrene emissions in the surfactant solutions at different concentrations (0.03–4 mM) were measured using a LS 55 fluorescence spectrometer (PerkinElmer, Waltar, MA, USA) equipped with a thermostatic bath HAAKE C25P (Artisan Scientific Corporation, Champaign, IL, USA). For the analyses, three microliters of the pyrene solution in CH3OH (2 μM) were added to each of the aqueous surfactant solutions. The excitation wavelength was 334 nm. Ten acquisitions were recorded for each solution in the range of 200–700 nm at a temperature of 25 °C. The peak intensity I (λ = 372 nm) to III (λ = 384 nm) ratio was plotted against the surfactant concentrations. CMC values were calculated from the center of the sigmoid by fitting the experimental data through the Boltzmann nonlinear regression (GraphPad Prism 6 software) according to the following equation: bottom+(top−bottom)/1+10^[(logCMC−x)hill slope] where the top and bottom are the plateau of the curve and the hill slope is the steepness.

[3] = CMC by dynamic light scattering (counts); type: physicochemical; conditions: counts vs concentration, 25 °C
Description: The DLS from the counts analysis confirmed the self-assembling properties of the amphiphiles analyzed as evidenced by the fluorescence measurements. Figure 2b reports the variation in the scattering intensities to the detector (kCps) as a function of the surfactant concentration.
As unimers, instead, the hydrodynamic sizes of the surfactant molecules were too small and the scattering properties of the solutions were not markedly different from those of the medium.
The scattering intensity to the detector (counts, kCps) was measured for different concentrations (0.03–4 mM) of surfactant solution using a Malvern Zetasizer Nano S (Malvern, Worcestershire, UK). Measurements were performed at 25 °C at a fixed laser position (4.65) and attenuation (11). CMC values were calculated from counts versus concentration plots by fitting the experimental data using the segmental linear regression model (GraphPad Prism 6 software).

Calu-3 monolayers [4] = assay: TEER measurement; type: cell-based, human; conditions: Calu-3 cells; for effect on TEER: surfactant 4 mM in HBSS, 3 h; for decrease in TEER with respect to basal value: surfactant 4 mM, reversible
Protocol: TEER studies were performed in Calu-3 cells (Figure 4) to preliminarily evaluate the potential use of the synthesized sugar esters as absorption enhancers. […] .
Calu-3 cells were seeded on filter inserts Transwell® at ~200,000 cells per insert. The cells were cultured in Dulbecco Modified Eagle Medium (DMEM)-F12 to confluence for around three weeks using an air–liquid culture condition. The culture medium was changed every 48 h. […] Baseline TEER was recorded following 30 min of equilibration in HBSS. […] The cells were incubated with the samples or HBSS as a control for 3 h. During this period, TEER was measured every 30 min. The samples were then removed and the cells were washed extensively using HBSS. Culture medium was added to the basolateral chamber and a further measurement of TEER was taken at 24 h following sample application to establish TEER reversibility. The change in TEER was reported as a percentage relative to the baseline value.

Calu-3 cells = assay: MTT cell viability assay; type: cell-based, human; conditions: 3 h incubation
Protocol: All the compounds were tested to evaluate their cytotoxicity profile on Calu-3 cells. The MTT colorimetric assay, based on the reduction of a yellow tetrazolium salt MTT to purple formazan crystals by metabolically active cells, was used to measure the cellular metabolic activity as an indicator of cell viability, proliferation, and cytotoxicity. Indeed, the viable cells contain NAD(P)H-dependent oxidoreductase enzymes, which reduce MTT to formazan. […] Moreover, the LDH release assay, used to assess the level of plasma membrane damage in a cell population, was performed to evaluate the cytotoxicity of the sugar esters. LDH is in fact a stable enzyme found in all cell types and is rapidly released into the cell culture medium following damage to the plasma membrane that occurs after cell damage or death. […]
Calu-3 cells were seeded on 96-well plates at ~50,000 cells per well and were incubated to attain at least 80% confluence before the experiment. Prior to the assay, the culture medium was removed and replaced with different concentrations of surfactants (0.03 to 4.5 mM for the fluorescence spectroscopy and DLS analysis) in Hank’s balanced salt solution (HBSS). […] The supernatant was collected for the LDH assay and the cell viability was measured with the MTT assay according to the manufacturers’ instructions, with at least three repeats for each sample.

Calu-3 monolayers [5] = assay: FITC-dextran in vitro cell permeability study; conditions: surfactant 4 mM
Protocol: Cell monolayers with TEER over 800 Ω were used in these studies to ensure the integrity of the monolayers. FITC-dextran MW 4000 was used as a model macromolecular drug. Prior to sample application, the culture medium was removed, and the cell layers were washed with HBSS. The cells were equilibrated in HBSS for 30 min. Sucrose ester solutions at 4 mM and dextran at a final concentration of 0.5 mg/mL in HBSS were applied to the apical side of the cells. HBSS was added to the basolateral side. A basolateral solution of 100 µL was collected at 30, 60, 90, 120, 150, and 180 min after sample application and replaced with an equivalent volume of fresh HBSS. The amount of dextran permeating the cell monolayers in 3 h was quantified by spectrofluorometric analysis.

| Compound | TEER, % of the baseline value after decrease (Calu-3 monolayers [1]) | Fluorescence Spectroscopy CMC [2] | Dynamic Light Scattering CMC [3] | effect on TEER (Calu-3 monolayers [4]) | cell viability (MTT) (Calu-3 cells; highest tested concentration of 4.5 mM) | decrease in TEER with respect to basal value (Calu-3 monolayers [4]) | permeation enhancing effect on FITC-dextran Papp (Calu-3 monolayers [5]; Calu-3 cell layers, FITC-dextran MW 4000 0.5 mg/mL) | increase in FITC-dextran permeability vs control (Calu-3 monolayers [5]; Calu-3 cells, non-statistically significant vs control) | cell viability (MTT), lowest level reached (Calu-3 cells; 0.03 to 4.5 mM) |
| --- | --- | --- | --- | --- | --- | --- | --- | --- | --- |
| CCCCCCCCCCCC(=O)OCC1OC(OC2C(CO)OC(O)C(O)C2O)C(O)C(O)C1O (stereo not shown) [6′-lactose laurate] | ~ 25% | – | – | – | – | – | – | – | – |
| O=C(Cc1ccccc1)OC[C@H]1O[C@H](O[C@]2(CO)O[C@H](CO)[C@@H](O)[C@@H]2O)[C@H](O)[C@@H](O)[C@@H]1O [URB1480, β-D-fructofuranosyl 6-O-(2-Phenylethanoyl)-α-D-glucopyranoside] | – | 0.861 ± 0.076 mM | 0.791 ± 0.045 mM | only poorly affected TEER | – | – | – | – | – |
| O=C(OC[C@H]1O[C@H](O[C@]2(CO)O[C@H](CO)[C@@H](O)[C@@H]2O)[C@H](O)[C@@H](O)[C@@H]1O)c1ccc(-c2ccccc2)cc1 [URB1481, β-D-fructofuranosyl 6-O-[2-(4-Phenyl)benzoyl]-α-D-glucopyranoside] | – | 0.305 ± 0.091 mM | 0.329 ± 0.023 mM | most effective surfactants for decreasing TEER | above 70% | ~ 30% | more prominent permeation enhancing effect | three-fold increase | – |
| O=C(Cc1ccc(-c2ccccc2)cc1)OC[C@H]1O[C@H](O[C@]2(CO)O[C@H](CO)[C@@H](O)[C@@H]2O)[C@H](O)[C@@H](O)[C@@H]1O [URB1482, β-D-fructofuranosyl 6-O-[2-(4-Phenyl)phenylethanoyl]-α-D-glucopyranoside] | – | 0.095 ± 0.015 mM | 0.181 ± 0.026 mM | moderate action | – | – | – | – | – |
| Lactose p-biphenyl acetate [URB1421] | – | 0.110 ± 0.017 mM | 0.259 ± 0.063 mM | moderate action | – | – | – | – | – |
| Lactose p-phenyl benzoate [URB1420] | – | 0.270 ± 0.015 mM | 0.344 ± 0.034 mM | most effective surfactants for decreasing TEER | – | ~ 30% | – | – | – |
| Lactose phenyl acetate [URB1419] | – | 0.753 ± 0.084 mM | 0.729 ± 0.075 mM | moderate action | – | – | – | – | ≥ 70% |

— paper PMC9964938, “Synthesis and Properties of Sucrose- and Lactose-Based Aromatic Ester Surfactants as Potential Drugs Permeability Enhancers” (Pharmaceuticals, 2023)
